Like-named read-outs stand apart in the source and are kept apart here.
Tests used:
URAT1CS = type: cell-based; details: HEK293T cells expressing hURAT1 versus URAT1CS
hURAT1 = target: T1, hURAT1 (Homo sapiens, UniProt Q96S37); type: cell-based; details: for KT urate / Vmax: fit of the data set with this inhibitor, 95% CI; for Mode of inhibition of [14C]-urate uptake: competitive versus non-competitive fits
T1 sequence (Q96S37 1-553): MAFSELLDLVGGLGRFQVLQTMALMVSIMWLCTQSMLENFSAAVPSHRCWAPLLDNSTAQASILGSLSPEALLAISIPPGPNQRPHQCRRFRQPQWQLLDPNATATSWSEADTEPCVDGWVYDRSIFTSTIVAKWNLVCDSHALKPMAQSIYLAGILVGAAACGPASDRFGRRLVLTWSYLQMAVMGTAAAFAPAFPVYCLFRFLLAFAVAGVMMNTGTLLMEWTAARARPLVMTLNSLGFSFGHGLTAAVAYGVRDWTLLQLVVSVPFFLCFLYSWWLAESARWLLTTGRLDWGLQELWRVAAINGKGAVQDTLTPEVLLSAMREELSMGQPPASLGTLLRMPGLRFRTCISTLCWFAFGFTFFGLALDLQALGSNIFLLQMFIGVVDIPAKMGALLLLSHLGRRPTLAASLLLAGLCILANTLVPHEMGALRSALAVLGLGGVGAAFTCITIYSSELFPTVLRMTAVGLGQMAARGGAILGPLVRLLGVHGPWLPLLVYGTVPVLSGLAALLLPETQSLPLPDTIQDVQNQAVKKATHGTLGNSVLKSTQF

CCc1oc2ccccc2c1C(=O)c1cc(Br)c(O)c(Br)c1 [BBR, benzbromarone]
Inhibitor binding to URAT1CS as judged from IC50 (URAT1CS): high affinity
KT urate (hURAT1; Competitive model): 26.08 [11.29–48.59] µM
Vmax (hURAT1; Competitive model): 1591 [1355–1846] pmol min^−1 mg^−1
KT urate (hURAT1; Non-competitive model): 32.4 [20.7–47.9] µM
Vmax (hURAT1; Non-competitive model): 1700 [1530–1881] pmol min^−1 mg^−1
Mode of inhibition of [14C]-urate uptake (hURAT1): non-competitively

O=C(O)CSc1nnc(Br)n1-c1ccc(C2CC2)c2ccccc12 [LESU, lesinurad]
KT urate (hURAT1; Competitive model): 162.8 [126.4–210.1] µM
Vmax (hURAT1; Competitive model): 3625 [3335–3955] pmol min^−1 mg^−1
KT urate (hURAT1; Non-competitive model): 175.1 [148.8–206.5] µM
Vmax (hURAT1; Non-competitive model): 3725 [3522–3947] pmol min^−1 mg^−1
Mode of inhibition of [14C]-urate uptake (hURAT1): non-competitively
